# Data: patent publication US10703698B2, “Compounds which activate estrogen receptors and compositions and methods of using the same” (The Board of Trustees of the University of Illinois, priority 2016, dated 2020)
# “Also recorded” adds a separate entry of the source.
# Columns and labels:
# MCF-7 cells [1] = assay: RNA-Seq transcriptional profiling of MCF-7 cells; type: cell-based, human; conditions: for number of genes regulated: 10 nM E2 or 1 μM PaPE-1
# Protocol: For gene expression analysis, total RNA was extracted from 3 biological replicates for each ligand treatment using Trizol reagent and further cleaned using the RNAeasy kit (QIAGEN). […] Once the sample quality and replicate reproducibility were verified, 2 samples from each group were subjected to sequencing. RNA at a concentration of 100 ng/μL in nuclease-free water was used for library construction. cDNA libraries were prepared with the mRNA-TruSeq Kit (Illumina, Inc.). Briefly, the poly-A containing mRNA was purified from total RNA, RNA was fragmented, double-stranded cDNA was generated from fragmented RNA, and adapters were ligated to the ends.
# The paired-end read data from the HiSeq 2000 were processed and analyzed through a series of steps. Base calling and de-multiplexing of samples within each lane were done with Casava 1.8.2. FASTQ files were trimmed using FASTQ Trimmer (version 1.0.0). TopHat2 (version 0.5) was employed to map paired RNA-Seq reads to version hg19 of the Homo sapiens reference genome in the UCSC genome browser in conjunction with the RefSeq genome reference annotation. Gene expression values (raw read counts) from BAM files were calculated using StrandNGS (version 2.1) Quantification tool. Partial reads were considered and option of detecting novel genes and exons was selected. Default parameters for finding novel exons and genes were specified. DESeq normalization algorithm using default values was selected. Differentially expressed genes were then determined by fold-change and p-value with Benjamini and Hochberg multiple test correction for each gene for each treatment relative to the vehicle control. Genes with fold-change >2 and p-value <0.05 were considered as statistically significant, differentially expressed. All RNA-Seq datasets have been deposited with the NCBI under GEO accession number GSE73663.
# ovariectomized mice = assay: carotid artery reendothelialization after perivascular electric injury; type: in vivo
# Protocol: Carotid artery reendothelialization was studied following perivascular electric injury in mice by assessing Evans blue dye uptake 72 h after injury. Endothelial denudation and recovery after injury in this model have been confirmed by immunohistochemistry for von Willebrand Factor. […] Carotid artery denudation was performed 21d later. In select studies additional treatments included subcutaneous injections of vehicle or ICI 182,780 (360 μg/mouse) administered 3d prior to carotid injury and on the day of injury. At the end of the study, uteri were also harvested and weighed.
# [2] = test system: ovariectomized C57BL/6 mice; assay: ovariectomized mice: uterus, thymus and mammary gland effects
# [3] = test system: ovariectomized C57BL/6 mice; assay: stroke model, transient middle cerebral artery occlusion (tMCAo)
# eNOS = eNOS activation in primary endothelial cells (14C-L-arginine to 14C-L-citrulline); type: cell-based, bovine; conditions: 1 μM ICI 182,780; listed as ICI
# LRRC54 gene = assay: LRRC54 (non-genomic gene) mRNA expression, qPCR; conditions: MCF-7 cells, 1 μM ICI pretreatment, 1 μM PaPE-1
# MCF-7 cells [4] = assay: oleic acid (OA)-induced MCF-7 cell proliferation, WST1; conditions: for OA-induced MCF-7 cell proliferation with added agent: 100 nM OA, agent 1 μM, 6 days
# MCF-7 cells [5] = assay: MCF-7 proliferation in serum from obese individuals or standard culture; conditions: 1 μM, six days
# mTOR pathway = assay: OA-induced mTOR pathway activation in MCF-7 cells, western blot; conditions: 100 nM OA, time course
# MCF-7 cells [6] = assay: RNA-Seq of MCF-7 cells treated with OA with and without PaPE-1; type: cell-based, human; conditions: 100 nM OA, 24 h
# Protocol: FIG. 38. Identification of genes induced by OA and PaPE-1's effect on the gene regulation. (A) RNA-Seq analysis of gene expression changes induced by OA and OA+PaPE1. Heat map of the genes with significant changed expression. MCF-7 cells were treated with Veh or 100 nM OA with and without 1 μM PaPE-1 for 24 h. RNA was isolated and RNA-Seq was performed using 2 samples from each treatment group. Differentially regulated genes were determined with p<0.05 and expression fold change >2. (B) Clusters from A. regulated by OA and reversed by PaPE-1. The average gene expression level of the cluster1 (C1) and 2 (C2) identified as PaPE-1 regulated high-fat genes. In C1, there are 425 genes whose expression were found stimulated in OA but not in the OA+PaPE-1 treatment. In C2, there are 646 genes whose expression were found suppressed in the OA but restored by OA+PaPE-1 treatment. (C) Venn diagram analysis. […] (D) Examples of OA-regulated genes. Some of the top functions of the involved genes are presented.
# [7] = test system: ERα recruitment to chromatin; assay: ERα ChIP-Seq of MCF-7 cells treated with OA with or without PaPE-1; type: cell-based, human; conditions: 100 nM OA, 45 minutes
# Protocol: FIG. 39. ERα chromatin binding sites induced by OA and the effect of PaPE-1 in reversing these changes in the ERα cistrome. (A) Recruitment of ERα to chromatin in the presence of PaPE-1, OA and OA+PaPE-1. MCF-7 cells were treated with Veh and 100 nM OA with or without 1 μM PaPE-1 for 45 minutes. ERα-DNA complexes were pulled down using ERα antibodies. Three biological replicates were pooled and sequenced. Clustering of ERα binding sites in treatments of Veh (0.1% EtOH), PaPE-1 (1 μM), OA (100 nM), and OA (100 nM)+PaPE-1 (1 t.M) was done using seqMINER software. (B) Validation of effect of OA and PaPE-1 on the ERα binding at regulatory region of PgR, CISH and SREBP1C using ChIP-qPCR. MCF-7 cells were treated with Veh and 100 nM OA with or without 1 μM PaPE-1 for 45 minutes. ERα-DNA complexes were pulled down using ERα antibodies. Recruitment of ERα to PgR (chr11:100,904,522-100,905,458), CISH (chr3:50,642,336-50,643,191) and SREBP1 (chr17:17,743,329-17,743,912) sites were quantified by Q-PCR. The experiment was repeated 3 times with at least duplicates each time. Mean±SEM is plotted. […] Mean±SEM is plotted. (C) Binding sites whose ERα occupation increased upon OA treatment (cluster marked by * in B). The ERα binding sites were separated into four clusters of characteristic patterns: C1, C2, C3 and C4. […]
# PgR gene = assay: PgR (genomic gene) mRNA expression, qPCR; conditions: MCF-7 cells; 1 μM PaPE or 10 nM E2 for 4 h where stated; versus vehicle or E2
# LRRC54 gene vs PgR gene = assay: preferential activation of non-genomic (LRRC54) over genomic (PgR) gene; conditions: relative to activation by E2
# ERα-SRC3 interaction = assay: tr-FRET assay of SRC3 coactivator binding to ERα; type: biochemical; conditions: 10 nM E2-ERα complex
# Description: Using a time-resolved Forster resonance energy transfer (tr-FRET) assay, the binding of the steroid receptor coactivator 3 (SRC3) to ERu was monitored.
smiles,measurement,setting,value
"C[C@]12CC[C@@H]3c4ccc(O)cc4CC[C@H]3[C@@H]1CC[C@@H]2O [Compound E2, estradiol, reference compound]",regulated genes blocked by MAPK inhibitor AZD6244,"MCF-7 cells [1]; 1 μM AZD6244, 4 h",23%
same,regulated genes blocked by mTOR pathway inhibitor PP242,"MCF-7 cells [1]; 1 μM PP242, 4 h",40%
same,number of genes regulated,MCF-7 cells [1]; 4 h,~1500 genes
same,number of genes regulated,MCF-7 cells [1]; 24 h,about 3000 genes
same,uterine weight in reendothelialization study,"ovariectomized mice; mouse, in vivo",greatly elevated; also recorded: increases uterine weight
same,mammary gland ductal morphology,[2]; 3 weeks,elicited marked ductal growth
same,uterine weight,"[2]; E2 5 μg/day, PaPE up to 300 μg/day",very effective in increasing growth of the uterus; also recorded: markedly increased
same,reduction of leukocytes infiltrated in the brain,[3]; 3 days post-stroke,63%
same,uterine wet weight,[3]; compared with vehicle,caused an increase in uterine wet weight
"C[C@]12CC[C@@H]3c4ccc(O)cc4C[C@@H](CCCCCCCCC[S+]([O-])CCCC(F)(F)C(F)(F)F)[C@H]3[C@@H]1CC[C@@H]2O (stereo partly shown) [ICI 182,780, Fulvestrant]",eNOS / NOS stimulation by E2 and PaPEs with antiestrogen,eNOS,fully attenuated; also recorded: fully blocked
same,activation of LRRC54 gene expression by PaPE-1 in presence of antiestrogen,LRRC54 gene,blocked
same,OA-induced MCF-7 cell proliferation with added agent,MCF-7 cells [4],blocked OA-induced cell proliferation; also recorded: suppressed
same,inhibition of MCF-7 proliferation in normal cell culture conditions,MCF-7 cells [5],better agents
same,endothelial repair responses elicited by E2 and PaPE-1 with antiestrogen,"ovariectomized mice; ICI 182,780 360 μg/mouse",fully prevented
same,uterine stimulation by E2 with antiestrogen,"ovariectomized mice; mouse, in vivo",blocked uterine stimulation by E2
"CCCCCCCC/C=C\CCCCCCCC(=O)O [OA, oleic acid]",mTOR pathway activation by OA,mTOR pathway,"robust activation of mTOR pathway downstream targets Akt, S6 and 4EBP1"
same,MCF-7 cell proliferation with free fatty acid,MCF-7 cells [4]; 1 and 100 nM,very efficient in increasing cell proliferation in MCF-7 cells
same,genes downregulated by OA,MCF-7 cells [6],about 500 genes
same,genes upregulated by OA,MCF-7 cells [6],about 350 genes
same,ERα recruitment to chromatin upon OA,[7],recruited to novel chromatin sites upon OA treatment
"CC/C(=C(\c1ccc(O)cc1)c1ccc(OCCN(C)C)cc1)c1ccccc1 [OH-Tam, trans-hydroxytamoxifen, reference compound]","PgR (genomic gene) mRNA expression, in words",PgR gene,slight stimulation of the PgR gene
same,"preference for activation of the non-genomic pathway (LRRC54 over PgR), in words",LRRC54 gene vs PgR gene,Neither Raloxifene (RAL) nor hydroxytamoxifen (TOT) show selective activation of the non-genomic gene LRRC54
same,OA-induced MCF-7 cell proliferation with added agent,MCF-7 cells [4]; listed as 4-OH-Tamoxifen,blocked OA-induced cell proliferation; also recorded: suppressed
same,reversal of the E2-promoted ER-SRC3 interaction,ERα-SRC3 interaction,reversed the ER-SRC3 interaction promoted by E2
same,inhibition of MCF-7 proliferation in normal cell culture conditions,MCF-7 cells [5],better agents
